Where two headings read alike, the source gives them in different places. Ends that are not written are not given here.
Tests used:
[1] = test system: pancreatic beta cells; assay: S661 repeated dosing in normal mice, BrdU incorporation by immunohistochemistry; format: in vivo, C57Bl/6 mice; details: 4 days
Protocol: FIG. 12 is a bar graph showing beta cell replication after repeated dosing of S661 in the pancreas of normal mice. Increased replication is shown as a fold increase compared to vehicle rate. Replication was analyzed by immunohistochemistry. The control in these experiments is a vehicle without S661.
In a study, S661 was administered subcutaneously in vehicle to C57Bl/6 mice 3 times daily at the following doses 1 mg/kg; 0.5 mg/kg; 0.25 mg/kg or 0.125 mg/kg bodyweight for a period of 4 days. In parallel BrdU was administered once daily at a dose of 100 mg/kg for the same period. At the fifth day the pancreas was removed and fixed in PFA. Paraffin embedded sections were stained for insulin, DAPI and BrdU. The incorporation of BrdU in replicating beta cells was analyzed using an automated script on images generated on a Zeiss Axioimager Z2.

[2] = test system: pancreatic beta cells; assay: S661 once daily in normal mice, beta cell replication by flow cytometry; format: in vivo, C57Bl/6 mice; details: S661 1 mg/kg s.c. once daily, 4 days
Protocol: FIG. 13 is a bar graph showing beta cell replication after repeated dosing of S661 in normal mice. Increased beta cell replication with S661 treatment is shown as a percentage of replication. Replication was analyzed by flow cytometry. The control in these experiments is a vehicle without S661. (*** p<0.001; Student's T-Test)
In another study, S661 was administered subcutaneously in vehicle to C57Bl/6 mice as once daily injections of 1 mg/kg bodyweight for a period of 4 days. In parallel BrdU was administered once daily at a dose of 100 mg/kg for the same period. At the fifth day the pancreas was removed and the replication of beta cell was measured by flow cytometry.

[3] = test system: pancreatic beta cells; assay: S661 repeated dosing in diet-induced obesity (DIO) mice, BrdU immunohistochemistry; format: in vivo, C57Bl/6 mice (DIO); details: S661 3 times 1 mg/kg or 0.125 mg/kg s.c., 4 days
Protocol: Increased beta cell replication with S661 treatment is shown as percent replication; there was no effect on non-beta cell replication. […] Immunohistochemistry was performed to analyze replication and islet area. (* p<0.05; ** p<0.01; Student's T-Test)
C57Bl/6 mice were fed a high fat diet for 17 weeks. S661 was administered subcutaneously in vehicle to DIO mice at doses of 3 times 1 mg/kg or 0.125 mg/kg bodyweight for a period of 4 days. In parallel BrdU was administered once daily at a dose of 100 mg/kg for the same period. At the fifth day the pancreas was removed and fixed in PFA. Paraffin embedded sections were stained for insulin, DAPI and BrdU. The incorporation of BrdU in replicating cells was analyzed using an automated script on images generated on a Zeiss Axioimager Z2.

[4] = obese rats, previous reports; cited from earlier work
[5] = test system: pancreatic beta cells; assay: S961 treatment of mice, beta cell replication (Ki67/insulin immunostaining of pancreas); format: in vivo; details: 0.125 to 1 μMol/Kg/week, vs vehicle
From the text: The white arrows point to replicating beta cells. FIG. 1C is a bar graph showing Ki67+/insulin+% after treatment for 7 days with increasing doses (from 0.125 μMol/Kg/week to 1 μMol/Kg/week) of S961. […] The control in these experiments is vehicle without S961. To count the Ki67+/insulin+ percentage and the beta cell area/pancreas area, the whole pancreas was cryosectioned and immunostained, and the standard graph analysis tools such as Metamorph and Photoshop were used for the quantification.
As described herein, administration of a low dose of insulin receptor antagonist S961 to a mammal produces an increase in beta cell replication (FIG. 1). Following injection of S961, gene expression in liver, muscle, and fat was analyzed because these tissues are involved in carbohydrate storage and metabolism. Of particular interest as a result of this analysis was mouse gene EG624219.

[6] = test system: TD26 (EG624219) mRNA; assay: TD26 mRNA expression in tissues of mice treated with S961 for 7 days; format: in vivo; details: liver and fat
From the text: Genes close to the diagonal line show similar expression values in treated and untreated liver. […] TD26 expression increases in the liver and fat upon S961 treatment. […] The presumptive signal peptide is included at the N-terminus. […] Hepa1-6 cells have been transfected with a plasmid carrying the gene for TD26 fused to a Myc-tag. The cells were stained with myc antibody.

[7] = Blood glucose levels after administration of S961; format: in vivo
From the text: As used herein, low doses of S961 will typically be less than 1 μMol/Kg/week, preferably from 0.125 μMol/Kg/week to 0.5 μMol/Kg/week. However it will be understood that increased doses may be useful as well, particularly if utilized in conjunction with an anti-hyperglycemic agent.

Substance | increase in β-cell replication in comparison to vehicle ([1]; S661 0.125 mg/kg s.c. 3 times daily) [fold] | increase in β-cell replication in comparison to vehicle ([1]; S661 1 mg/kg s.c. 3 times daily) [fold] | increase in the percentage of beta cell replication as compared to vehicle [2] [fold] | beta cell replication [3] | islet area relative to total pancreas area [3] | non-beta cell replication [3] | blood glucose levels [4] | beta cell replication (Ki67+/insulin+) ([5]; treatment for 7 to 10 days) | beta cell area/pancreas area ([5]; treatment for 7 days) | relative expression of TD26 mRNA [6] | blood glucose levels ([7]; increasing doses of S961) | blood glucose levels ([7]; low doses of S961)
S661: 43 amino acid peptide insulin receptor antagonist, SEQ ID NO: 16 (GSLDESFYDWFERQLGGGSGGSSLEEEWAQIQCEVWGRGCPSY), C-terminus is an amide (GSLDESFYDWFERQLGGGSGGSSLEEEWAQIQCEVWGRGCPSY-NH2; cysteine pairing not given here) | 2 | 5 | ~5 | increased amount of beta cell replication | increased islet area relative to total pancreas area | does not increase non-beta cell replication | marked increase in blood glucose levels | – | – | – | – | –
S961: 43 amino acid peptide insulin receptor antagonist, SEQ ID NO: 16 (GSLDESFYDWFERQLGGGSGGSSLEEEWAQIQCEVWGRGCPSY), C-terminus is an acid (GSLDESFYDWFERQLGGGSGGSSLEEEWAQIQCEVWGRGCPSY-OH; cysteine pairing not given here) | – | – | – | – | – | – | – | induces beta cell replication | significant increase | increases | blood glucose levels increase | does not increase blood glucose levels
